The results in this text go back to patent publication US20070293543A1, “THRESHOLD BLOOD OMEPRAZOLE CONCENTRATION IS 50 NG/ML FOR THE MAINTENANCE OF INTRAGASTRIC pH OF AT LEAST 4.0 AFTER ORAL DOSING WITH CMA-OMEPRAZOLE, AGN 201904-Z” (priority 2006, published 2007).

This assay relates to intragastric pH. The experiment in a line: 24-hr intragastric pH monitoring (pharmacodynamics). It counts as in vivo, healthy male subjects. To be noted: oral once-daily dosing; for % time intragastric pH ≧4.0: 24-hr monitoring, p<0.0001 vs esomeprazole, dose level and day not stated. How it is done: Methods: Forty healthy male subjects received 240, 480, and 640 mg AGN 201904-Z or 40 mg esomeprazole orally once-daily for 5 days in a open-label, randomized, 4-way cross-over study. These doses were estimated to deliver molar equivalent omeprazole doses of 53%, 107%, and 143% of the esomeprazole dose, respectively. Pharmacokinetic (PK) blood samples were collected at 8 timepoints following the 1st and 5th dose of each treatment. Pharmacodynamics (PD) were evaluated via 24-hr intragastric ph monitoring before treatment and after the 1st and 5th doses of each treatment. Empirical PK/PD models were constructed for AGN 201904-Z data by regressing the % time that intragastric pH ≧4.0 during a 24-hr dosing period against the duration of time that blood omeprazole concentrations were greater than 8 different concentrations over the same 24-hr period. The possible threshold concentrations evaluated ranged from 10 to 400 ng/mL. The concentration that provided the best-fit was designated the threshold concentration. The best-fit concentration and model was chosen based on the WSSR, R^2, visual inspection, and AIC value. Results: Among the possible omeprazole threshold concentrations evaluated, 50 ng/mL was the best-fit concentration value in all of the models evaluated.

For `COc1ccc2nc([S@@+]([O-])Cc3ncc(C)c(OC)c3C)[nH]c2c1` [esomeprazole, reference compound], the “% time intragastric pH ≧4.0” value is reported as 68.4 % of 24-hr.
As for `COc1ccc2c(c1)nc([S+]([O-])Cc1ncc(C)c(OC)c1C)n2S(=O)(=O)c1ccc(OCC(=O)[O-])cc1.[Na+]` (stereo not drawn) [AGN 201904-Z, sodium {4-[5-Methoxy-2-(4-methoxy-3,5-dimethyl-pyridin-2-ylmethanesulfinyl)-benzoimidazole-1-sulfonyl]-phenoxy}-acetate], the “% time intragastric pH ≧4.0” value is listed as 80.1 % of 24-hr. For the same molecule, the “maintaining 24-hour intragastric pH ≧4.0, comparison with esomeprazole” value (healthy male subjects) is on record as “more effective than esomeprazole”.
